Measurements as given in ChEMBL document CHEMBL4020850, “Discovery of LSZ102, a Potent, Orally Bioavailable Selective Estrogen Receptor Degrader (SERD) for the Treatment of Estrogen Receptor Positive Breast Cancer” (J Med Chem, 2018).
The source made the active and inactive calls. The calls are words filed in the database; no cut-off is given here.

Legend:
[1] = Clearance in C57BL/6 mouse at 1 mg/kg, iv or 3 mg/kg, po; type: ADME, organism-based; details: in vivo
[2] = Cmax in C57BL/6 mouse at 3 mg/kg, po; type: ADME, organism-based; design: dose 3 mg/kg, route oral; details: in vivo
[3] = Oral bioavailability in C57BL/6 mouse at 3 mg/kg; type: ADME, organism-based; details: in vivo
Estrogen receptor = target: T1, Estrogen receptor (Homo sapiens, UniProt P03372); assay: Induction of selective estrogen receptor alpha degradation in human MCF7 cells after 18 to 24 hrs by in-cell Western analysis; type: cell-based
T1 sequence (P03372 whole entry): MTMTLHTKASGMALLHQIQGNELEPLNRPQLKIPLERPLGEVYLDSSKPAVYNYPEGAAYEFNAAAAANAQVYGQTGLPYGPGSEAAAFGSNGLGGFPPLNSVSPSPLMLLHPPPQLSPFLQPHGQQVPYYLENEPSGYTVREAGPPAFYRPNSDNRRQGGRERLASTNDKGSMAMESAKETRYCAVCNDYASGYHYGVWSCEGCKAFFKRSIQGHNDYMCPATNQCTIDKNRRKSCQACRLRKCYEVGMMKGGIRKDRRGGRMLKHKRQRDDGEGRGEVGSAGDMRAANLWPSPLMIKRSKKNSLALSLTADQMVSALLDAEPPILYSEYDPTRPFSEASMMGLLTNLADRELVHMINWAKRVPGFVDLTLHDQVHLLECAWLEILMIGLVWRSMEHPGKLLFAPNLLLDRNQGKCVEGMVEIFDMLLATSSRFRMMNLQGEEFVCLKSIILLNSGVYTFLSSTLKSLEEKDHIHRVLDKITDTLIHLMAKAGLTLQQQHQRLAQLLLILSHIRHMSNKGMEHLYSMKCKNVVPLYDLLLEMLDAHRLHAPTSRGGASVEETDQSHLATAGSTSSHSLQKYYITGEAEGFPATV

MCF7 [4] = assay: Antitumor activity against human MCF7 cells xenografted in NOD SCID gamma mouse assessed as change in tumor volume at 60 mg/kg, po 5 days per week for 48 days post tumor implantation measured 7 hrs post last dose; type: functional
Mus musculus [5] = assay: Downregulation of progesterone receptor mRNA level in NOD SCID gamma mouse xenografted with human MCF7 cells at 60 mg/kg, po 5 days per week for 48 days post tumor implantation measured 7 hrs post last dose by RT-PCR method; type: functional, organism-based
MCF7 [6] = assay: Antitumor activity against human MCF7 cells xenografted in NOD SCID gamma mouse assessed as change in tumor volume at 5 mg, sc administered once in a week for 48 days post tumor implantation measured 7 hrs post last dose; type: functional
Mus musculus [7] = assay: Downregulation of progesterone receptor mRNA level in NOD SCID gamma mouse xenografted with human MCF7 cells at 5 mg, sc administered once in a week for 48 days post tumor implantation measured 7 hrs post last dose by RT-PCR method; type: functional, organism-based
Mus musculus [8] = assay: In vivo inhibition of ER protein level in NOD SCID gamma mouse xenografted with human MCF7 cells at 5 mg, sc administered once in a week for 48 days post tumor implantation measured 7 hrs post last dose by Western blot method relative to control; type: functional
[9] = Clearance in Sprague-Dawley rat at 1 mg/kg, iv or 3 mg/kg, po; type: ADME, organism-based; details: in vivo
[10] = Cmax in Sprague-Dawley rat at 3 mg/kg, po; type: ADME, organism-based; design: dose 3 mg/kg, route oral; details: in vivo
[11] = Oral bioavailability in Sprague-Dawley rat at 3 mg/kg; type: ADME, organism-based; details: in vivo
[12] = Equilibrium solubility in pH 6.8 buffer at 1 mM after 16 hrs by HPLC based shake flask method; type: physicochemical
MCF7 [13] = assay: Antiproliferative activity against human MCF7 cells after 6 days in presence of estradiol by CellTiter-Glo assay; details: MCF7, 144 h
MCF7 [14] = assay: Antitumor activity against human MCF7 cells xenografted in NOD SCID gamma mouse assessed as change in tumor volume at 20 mg/kg, po qd for 48 days post tumor implantation measured 7 hrs post last dose; type: functional
[15] = AUC in NOD SCID gamma mouse xenografted with human MCF7 cells at 20 mg/kg, po qd for 19 days; type: ADME, organism-based; details: in vivo
[16] = Cmax in NOD SCID gamma mouse xenografted with human MCF7 cells at 20 mg/kg, po qd for 19 days; type: ADME, organism-based; design: dose 20 mg/kg, route oral; details: in vivo
Mus musculus [17] = assay: Downregulation of progesterone receptor mRNA level in NOD SCID gamma mouse xenografted with human MCF7 cells at 20 mg/kg, po qd for 48 days post tumor implantation measured 7 hrs post last dose by RT-PCR method; type: functional, organism-based
Mus musculus [18] = assay: In vivo inhibition of ER protein level in NOD SCID gamma mouse xenografted with human MCF7 cells at 20 mg/kg, po qd for 48 days post tumor implantation measured 7 hrs post last dose by Western blot method relative to control; type: functional
Rattus norvegicus [19] = assay: Dose normalized Cmax in Sprague-Dawley rat at 3 mg/kg, po; type: ADME, organism-based; details: in vivo
Rattus norvegicus [20] = assay: Dose normalized AUC (0 to t) in Sprague-Dawley rat at 1 mg/kg, iv; type: ADME, organism-based; details: in vivo
Rattus norvegicus [21] = assay: Dose normalized AUC (0 to t) in Sprague-Dawley rat at 3 mg/kg, po; type: ADME, organism-based; details: in vivo
[22] = Volume of distribution at steady state in Sprague-Dawley rat at 1 mg/kg, iv or 3 mg/kg, po; type: ADME, organism-based; details: in vivo, read-out: Vdss
[23] = Elimination half life in Sprague-Dawley rat at 1 mg/kg, iv or 3 mg/kg, po; type: ADME, organism-based; details: in vivo, read-out: beta t1/2 (converted)
Rattus norvegicus [24] = assay: Dose normalized Cmax in Wistar Han rat at 30 mg/kg, po; type: ADME, organism-based; details: in vivo
Rattus norvegicus [25] = assay: Dose normalized AUC (0 to t) in Wistar Han rat at 30 mg/kg, po; type: ADME, organism-based; details: in vivo
Rattus norvegicus [26] = assay: Dose normalized Cmax in Wistar Han rat at 100 mg/kg, po; type: ADME, organism-based; details: in vivo
Rattus norvegicus [27] = assay: Dose normalized AUC (0 to t) in Wistar Han rat at 100 mg/kg, po; type: ADME, organism-based; details: in vivo
Rattus norvegicus [28] = assay: Dose normalized Cmax in Wistar Han rat at 300 mg/kg, po; type: ADME, organism-based; details: in vivo
Rattus norvegicus [29] = assay: Dose normalized AUC (0 to t) in Wistar Han rat at 300 mg/kg, po; type: ADME, organism-based; details: in vivo
Canis familiaris [30] = assay: Dose normalized Cmax in Beagle dog at 30 mg/kg, po; type: ADME, organism-based, Canis lupus familiaris; details: in vivo
[31] = Oral bioavailability in Beagle dog at 10 mg/kg; type: ADME, organism-based, Canis lupus familiaris; details: in vivo
[32] = Elimination half life in Beagle dog at 0.3 mg/kg, iv or 10 mg/kg, po; type: ADME, organism-based, Canis lupus familiaris; details: in vivo, read-out: beta t1/2 (converted)
[33] = Clearance in Beagle dog at 0.3 mg/kg, iv or 10 mg/kg, po; type: ADME, organism-based, Canis lupus familiaris; details: in vivo
Canis familiaris [34] = assay: Dose normalized AUC (0 to t) in Beagle dog at 10 mg/kg, po; type: ADME, organism-based, Canis lupus familiaris; details: in vivo
[35] = Volume of distribution at steady state in Beagle dog at 0.3 mg/kg, iv or 10 mg/kg, po; type: ADME, organism-based, Canis lupus familiaris; details: in vivo, read-out: Vdss
Canis familiaris [36] = assay: Dose normalized AUC (0 to t) in Beagle dog at 0.3 mg/kg, iv; type: ADME, organism-based, Canis lupus familiaris; details: in vivo
Canis familiaris [37] = assay: Clearance in Beagle dog at 0.3 mg/kg, iv or 10 mg/kg, po relative to hepatic blood flow; type: ADME, organism-based, Canis lupus familiaris; details: in vivo
Canis familiaris [38] = assay: Dose normalized Cmax in Beagle dog at 10 mg/kg, po; type: ADME, organism-based, Canis lupus familiaris; details: in vivo
Canis familiaris [39] = assay: Dose normalized AUC (0 to t) in Beagle dog at 30 mg/kg, po; type: ADME, organism-based, Canis lupus familiaris; details: in vivo
[40] = AUC in Beagle dog at 10 mg/kg, po; type: ADME, organism-based, Canis lupus familiaris; details: in vivo

With `CC(C)c1ccccc1-c1sc2cc(O)ccc2c1Oc1ccc(/C=C/C(=O)O)cc1` the clearance [1] was 15 mL/min/kg, the Cmax [2] was 1180 nM and the bioavailability [3] was 13%.

For `CC(F)(F)c1ccccc1-c1sc2cc(O)ccc2c1Oc1ccc(/C=C/C(=O)O)cc1`, the clearance [1] was 14 mL/min/kg, the Cmax [2] was 187 nM and the bioavailability [3] was 5%.

For `COCc1ccccc1-c1sc2cc(O)ccc2c1Oc1ccc(/C=C/C(=O)O)cc1`, the IC50 (Estrogen receptor) was 3 nM.

With `CC/C(=C(\c1ccccc1)c1ccc(OCCN(C)C)cc1)c1ccccc1` [TAMOXIFEN] the T/C (MCF7 [4]) was 24% and the Activity (Mus musculus [5]) was “Active”.

For `C[C@]12CC[C@@H]3c4ccc(O)cc4C[C@@H](CCCCCCCCC[S+]([O-])CCCC(F)(F)C(F)(F)F)[C@H]3[C@@H]1CC[C@@H]2O` (some centres undefined) [FULVESTRANT], the T/C (MCF7 [6]) was 24%, the Activity (Mus musculus [7]) was “Active” and the “inhibition (INH)” value (Mus musculus [8]) was 67%.

`O=C(O)/C=C/c1ccc(Oc2c(-c3ccc(C(F)(F)F)cc3)sc3cc(O)ccc23)cc1` gave a clearance [1] of 6 mL/min/kg, a clearance [9] of 30 mL/min/kg and a Cmax [10] of 985 nM. The bioavailability [11] was 74%, the Cmax [2] was 1380 nM and the bioavailability [3] was 28%.

For `O=C(O)CCc1ccc(Oc2c(-c3ccc(O)cc3)sc3cc(O)ccc23)cc1`, the solubility thermodynamic at 16 h, 1000 µM [12] was greater than 1000 µM.

In the case of `CC(F)(F)c1cc(F)ccc1-c1sc2cc(O)ccc2c1Oc1ccc(/C=C/C(=O)O)cc1` [LSZ-102], the clearance [1] is reported as 28 mL/min/kg, the clearance [9] is reported as 19 mL/min/kg and the bioavailability [11] is reported as 33%. For the same compound, the Cmax [2] was 492 nM, the bioavailability [3] was 12% and the IC50 (MCF7 [13]) was 1.7 nM. The T/C (MCF7 [14]) was 2.4%, the AUC at 456 h [15] was 3.23 µM·h and the Cmax [16] was 1070 nM. For the same compound, the Activity (Mus musculus [17]) was “Active”, the inhibition in vivo at 20 mg/kg (Mus musculus [18]) was 63% and the Cmax/dose (Rattus norvegicus [19]) was 240 nM. It also gave an AUCt/dose (Rattus norvegicus [20]) of 1849 nM·h, an AUCt/dose (Rattus norvegicus [21]) of 620 nM·h and a Vd [22] of 0.9 L/kg. The half-life [23] was 1.4 h, the Cmax/dose (Rattus norvegicus [24]) was 1259 nM and the AUCt/dose (Rattus norvegicus [25]) was 2117 nM·h. It also gave a Cmax/dose (Rattus norvegicus [26]) of 513 nM, an AUCt/dose (Rattus norvegicus [27]) of 1940 nM·h and a Cmax/dose (Rattus norvegicus [28]) of 334 nM. It also gave an AUCt/dose (Rattus norvegicus [29]) of 3405 nM·h, a Cmax/dose (Canis familiaris [30]) of 123 nM and a bioavailability [31] of 12%. It also gave a half-life [32] of 4.1 h, a clearance [33] of 5 mL/min/kg and an AUCt/dose (Canis familiaris [34]) of 962 nM·h. For the same compound, the Vd [35] was 0.3 L/kg, the AUCt/dose (Canis familiaris [36]) was 7713 nM·h and the CL (Canis familiaris [37]) was 15%. The Cmax/dose (Canis familiaris [38]) was 268 nM, the AUCt/dose (Canis familiaris [39]) was 624 nM·h and the AUC [40] was 9.62 µM·h.

Work on `O=C(O)/C=C/c1ccc(Oc2c(-c3ccc(F)cc3C(F)(F)F)sc3cc(O)ccc23)cc1` yielded a clearance [1] of 18 mL/min/kg, a Cmax [2] of 1500 nM and a bioavailability [3] of 30%.

Work on `Cc1cc(-c2sc3cc(O)ccc3c2Oc2ccc(/C=C/C(=O)O)cc2)ccc1O` yielded a clearance [1] of 46 mL/min/kg, a Cmax [2] of 46 nM and a bioavailability [3] of 2%.

Compound `Oc1ccc(-c2sc3cc(O)ccc3c2Oc2ccc(/C=C/c3c[nH]cn3)cc2)cc1` has a solubility thermodynamic at 16 h, 1000 µM [12] of less than 5 µM.
